One assay addresses Histamine H3 receptor (Homo sapiens, UniProt Q9Y5N1).
Assay [1] concerns the target T1, Alpha-2C adrenergic receptor (Homo sapiens, UniProt P18825).
T1 sequence (P18825 whole entry): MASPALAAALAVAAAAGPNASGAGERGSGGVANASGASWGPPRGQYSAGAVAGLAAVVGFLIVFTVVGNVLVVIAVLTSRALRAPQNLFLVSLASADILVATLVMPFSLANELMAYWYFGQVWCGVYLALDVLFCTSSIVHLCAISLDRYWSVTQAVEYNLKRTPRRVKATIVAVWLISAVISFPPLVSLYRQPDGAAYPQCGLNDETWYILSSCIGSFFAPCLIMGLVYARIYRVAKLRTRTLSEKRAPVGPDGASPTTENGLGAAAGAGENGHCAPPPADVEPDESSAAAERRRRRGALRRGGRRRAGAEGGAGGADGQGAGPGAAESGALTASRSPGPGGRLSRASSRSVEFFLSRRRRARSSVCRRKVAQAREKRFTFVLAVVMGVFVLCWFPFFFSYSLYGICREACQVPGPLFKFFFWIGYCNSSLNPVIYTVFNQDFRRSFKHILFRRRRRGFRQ
The format is functional.

Assay [2] addresses T2, 5-hydroxytryptamine receptor 1A (Homo sapiens, UniProt P08908).
T2 sequence (P08908 whole entry): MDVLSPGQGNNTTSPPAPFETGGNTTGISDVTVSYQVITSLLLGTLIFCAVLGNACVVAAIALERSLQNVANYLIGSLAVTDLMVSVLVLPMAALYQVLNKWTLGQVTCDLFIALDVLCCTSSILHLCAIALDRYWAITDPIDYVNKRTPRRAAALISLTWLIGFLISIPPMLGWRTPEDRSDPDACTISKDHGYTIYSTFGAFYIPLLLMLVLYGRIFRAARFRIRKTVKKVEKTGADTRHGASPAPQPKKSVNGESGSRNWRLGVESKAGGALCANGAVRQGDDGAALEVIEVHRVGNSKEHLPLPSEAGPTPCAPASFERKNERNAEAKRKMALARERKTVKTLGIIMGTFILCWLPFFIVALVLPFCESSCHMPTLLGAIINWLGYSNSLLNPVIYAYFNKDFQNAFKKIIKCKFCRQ
The format is functional, cell-based.

Assay [3] has as its target T3, Prostaglandin G/H synthase 1 (Rattus norvegicus, UniProt Q63921).
T3 sequence (Q63921 whole entry): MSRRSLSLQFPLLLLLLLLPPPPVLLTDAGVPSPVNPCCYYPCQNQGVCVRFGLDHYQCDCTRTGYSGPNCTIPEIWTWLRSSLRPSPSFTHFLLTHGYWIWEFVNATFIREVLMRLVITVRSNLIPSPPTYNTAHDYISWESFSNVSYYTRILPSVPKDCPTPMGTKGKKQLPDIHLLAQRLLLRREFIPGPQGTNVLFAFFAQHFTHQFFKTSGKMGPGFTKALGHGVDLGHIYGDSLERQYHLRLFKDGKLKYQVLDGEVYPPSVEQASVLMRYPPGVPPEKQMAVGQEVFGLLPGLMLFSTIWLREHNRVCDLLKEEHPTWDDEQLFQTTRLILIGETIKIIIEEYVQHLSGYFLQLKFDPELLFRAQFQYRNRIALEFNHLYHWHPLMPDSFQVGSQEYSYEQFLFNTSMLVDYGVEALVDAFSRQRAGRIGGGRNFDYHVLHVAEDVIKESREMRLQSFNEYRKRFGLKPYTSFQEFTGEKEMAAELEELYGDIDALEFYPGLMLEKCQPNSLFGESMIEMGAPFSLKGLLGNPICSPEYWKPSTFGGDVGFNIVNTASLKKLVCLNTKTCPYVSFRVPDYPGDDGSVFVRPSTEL
The format is functional.

Assay [4] has as its target Sodium-dependent noradrenaline transporter (Homo sapiens, UniProt P23975).
The target of assay [5] is Voltage-dependent L-type calcium channel subunit alpha-1C (Rattus norvegicus, UniProt P22002). The format is functional.
Sequence of Voltage-dependent L-type calcium channel subunit alpha-1C (P22002 whole entry): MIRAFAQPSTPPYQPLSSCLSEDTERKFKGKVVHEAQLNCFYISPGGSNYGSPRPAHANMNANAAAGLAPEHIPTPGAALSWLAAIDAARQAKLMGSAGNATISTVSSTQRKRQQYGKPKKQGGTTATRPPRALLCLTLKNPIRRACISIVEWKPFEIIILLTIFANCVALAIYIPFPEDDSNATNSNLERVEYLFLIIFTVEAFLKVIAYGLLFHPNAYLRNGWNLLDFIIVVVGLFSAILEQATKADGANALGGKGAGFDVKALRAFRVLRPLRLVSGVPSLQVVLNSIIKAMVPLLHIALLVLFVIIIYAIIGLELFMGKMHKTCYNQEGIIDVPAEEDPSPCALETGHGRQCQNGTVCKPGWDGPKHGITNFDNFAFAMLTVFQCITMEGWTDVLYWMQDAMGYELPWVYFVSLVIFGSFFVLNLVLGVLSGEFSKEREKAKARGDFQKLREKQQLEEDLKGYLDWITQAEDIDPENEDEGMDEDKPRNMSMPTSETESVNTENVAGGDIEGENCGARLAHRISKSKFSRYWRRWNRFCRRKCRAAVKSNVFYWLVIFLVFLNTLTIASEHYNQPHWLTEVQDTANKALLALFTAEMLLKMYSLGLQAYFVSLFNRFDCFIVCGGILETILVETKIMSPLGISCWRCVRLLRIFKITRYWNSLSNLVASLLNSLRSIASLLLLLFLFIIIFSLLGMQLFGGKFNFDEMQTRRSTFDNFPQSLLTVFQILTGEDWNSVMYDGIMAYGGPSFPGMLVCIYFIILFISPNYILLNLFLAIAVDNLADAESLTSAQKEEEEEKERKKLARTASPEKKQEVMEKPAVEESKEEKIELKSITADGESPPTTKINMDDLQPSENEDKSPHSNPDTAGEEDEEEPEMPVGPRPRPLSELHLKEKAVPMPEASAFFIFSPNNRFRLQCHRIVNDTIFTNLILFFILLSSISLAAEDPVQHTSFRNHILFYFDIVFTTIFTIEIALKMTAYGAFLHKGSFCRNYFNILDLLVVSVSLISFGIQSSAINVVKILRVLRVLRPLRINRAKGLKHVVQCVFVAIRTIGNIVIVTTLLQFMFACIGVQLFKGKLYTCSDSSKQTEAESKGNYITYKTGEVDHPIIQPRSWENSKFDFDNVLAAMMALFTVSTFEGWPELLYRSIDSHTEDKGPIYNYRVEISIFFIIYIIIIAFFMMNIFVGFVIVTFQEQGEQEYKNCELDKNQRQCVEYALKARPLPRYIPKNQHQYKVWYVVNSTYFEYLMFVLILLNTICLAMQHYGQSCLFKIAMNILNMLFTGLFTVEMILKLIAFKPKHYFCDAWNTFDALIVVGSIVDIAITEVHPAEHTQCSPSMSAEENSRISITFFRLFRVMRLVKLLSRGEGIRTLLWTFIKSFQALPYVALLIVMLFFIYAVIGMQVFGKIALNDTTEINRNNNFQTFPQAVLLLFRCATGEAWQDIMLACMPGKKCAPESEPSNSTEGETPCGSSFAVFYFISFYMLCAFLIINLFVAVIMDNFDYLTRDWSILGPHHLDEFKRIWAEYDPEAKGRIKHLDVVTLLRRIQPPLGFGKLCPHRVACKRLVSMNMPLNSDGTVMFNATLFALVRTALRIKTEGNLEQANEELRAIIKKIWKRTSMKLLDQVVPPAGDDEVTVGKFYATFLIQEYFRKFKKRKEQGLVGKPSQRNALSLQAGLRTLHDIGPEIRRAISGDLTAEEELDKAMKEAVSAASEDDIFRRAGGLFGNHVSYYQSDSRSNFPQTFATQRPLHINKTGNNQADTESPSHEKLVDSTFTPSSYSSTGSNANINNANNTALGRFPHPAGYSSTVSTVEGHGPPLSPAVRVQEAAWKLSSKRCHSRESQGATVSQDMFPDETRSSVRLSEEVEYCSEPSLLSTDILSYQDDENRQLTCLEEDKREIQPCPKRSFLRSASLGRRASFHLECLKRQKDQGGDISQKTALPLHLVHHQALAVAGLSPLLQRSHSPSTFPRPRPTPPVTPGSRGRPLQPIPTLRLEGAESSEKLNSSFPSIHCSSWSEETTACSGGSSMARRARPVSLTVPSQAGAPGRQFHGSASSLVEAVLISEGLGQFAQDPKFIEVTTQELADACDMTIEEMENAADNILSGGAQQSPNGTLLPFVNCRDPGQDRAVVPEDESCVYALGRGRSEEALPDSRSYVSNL
The target of assay [6] is Beta-2 adrenergic receptor (Homo sapiens, UniProt P07550).
Sequence of Beta-2 adrenergic receptor (P07550 whole entry): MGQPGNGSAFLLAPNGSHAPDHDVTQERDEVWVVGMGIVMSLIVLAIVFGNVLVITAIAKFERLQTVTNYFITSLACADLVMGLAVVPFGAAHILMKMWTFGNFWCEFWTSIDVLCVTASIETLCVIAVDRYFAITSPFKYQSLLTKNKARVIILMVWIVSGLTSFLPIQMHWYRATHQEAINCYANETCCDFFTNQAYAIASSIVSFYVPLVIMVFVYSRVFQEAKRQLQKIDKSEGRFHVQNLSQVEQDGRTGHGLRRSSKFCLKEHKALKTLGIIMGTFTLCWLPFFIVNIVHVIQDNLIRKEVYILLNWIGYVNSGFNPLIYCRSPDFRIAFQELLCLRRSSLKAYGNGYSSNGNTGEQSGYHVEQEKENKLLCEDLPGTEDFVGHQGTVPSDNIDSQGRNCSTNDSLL
The target of assay [7] is T4, 5-hydroxytryptamine receptor 3A (Homo sapiens, UniProt P46098).
T4 sequence (P46098 whole entry): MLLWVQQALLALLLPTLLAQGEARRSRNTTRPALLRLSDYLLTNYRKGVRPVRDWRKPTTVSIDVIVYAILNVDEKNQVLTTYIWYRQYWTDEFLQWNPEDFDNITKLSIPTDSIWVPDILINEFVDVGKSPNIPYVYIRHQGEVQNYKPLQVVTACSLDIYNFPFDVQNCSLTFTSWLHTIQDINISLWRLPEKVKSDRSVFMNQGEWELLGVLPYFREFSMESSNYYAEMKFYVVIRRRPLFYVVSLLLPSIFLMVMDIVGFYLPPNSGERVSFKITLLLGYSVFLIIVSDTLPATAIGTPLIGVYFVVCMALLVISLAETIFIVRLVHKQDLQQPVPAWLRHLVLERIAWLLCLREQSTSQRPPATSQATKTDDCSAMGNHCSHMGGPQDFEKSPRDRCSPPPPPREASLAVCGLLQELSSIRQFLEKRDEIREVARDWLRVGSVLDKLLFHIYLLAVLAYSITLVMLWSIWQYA
The format is functional.

A further assay deals with T5, B2 bradykinin receptor (Homo sapiens, UniProt P30411).
T5 sequence (P30411 whole entry): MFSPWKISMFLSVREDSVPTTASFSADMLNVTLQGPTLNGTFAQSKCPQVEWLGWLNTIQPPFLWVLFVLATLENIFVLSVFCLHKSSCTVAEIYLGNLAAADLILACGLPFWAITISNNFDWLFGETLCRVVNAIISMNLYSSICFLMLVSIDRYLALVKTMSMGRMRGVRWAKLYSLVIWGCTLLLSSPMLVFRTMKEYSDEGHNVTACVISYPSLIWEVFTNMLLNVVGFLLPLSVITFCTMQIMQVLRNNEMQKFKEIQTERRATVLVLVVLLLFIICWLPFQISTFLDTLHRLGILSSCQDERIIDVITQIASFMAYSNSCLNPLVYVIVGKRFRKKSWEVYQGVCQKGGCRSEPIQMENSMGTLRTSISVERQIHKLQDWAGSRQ
Also: assay procedure not described here.

Sequence of Sodium-dependent noradrenaline transporter (P23975 whole entry): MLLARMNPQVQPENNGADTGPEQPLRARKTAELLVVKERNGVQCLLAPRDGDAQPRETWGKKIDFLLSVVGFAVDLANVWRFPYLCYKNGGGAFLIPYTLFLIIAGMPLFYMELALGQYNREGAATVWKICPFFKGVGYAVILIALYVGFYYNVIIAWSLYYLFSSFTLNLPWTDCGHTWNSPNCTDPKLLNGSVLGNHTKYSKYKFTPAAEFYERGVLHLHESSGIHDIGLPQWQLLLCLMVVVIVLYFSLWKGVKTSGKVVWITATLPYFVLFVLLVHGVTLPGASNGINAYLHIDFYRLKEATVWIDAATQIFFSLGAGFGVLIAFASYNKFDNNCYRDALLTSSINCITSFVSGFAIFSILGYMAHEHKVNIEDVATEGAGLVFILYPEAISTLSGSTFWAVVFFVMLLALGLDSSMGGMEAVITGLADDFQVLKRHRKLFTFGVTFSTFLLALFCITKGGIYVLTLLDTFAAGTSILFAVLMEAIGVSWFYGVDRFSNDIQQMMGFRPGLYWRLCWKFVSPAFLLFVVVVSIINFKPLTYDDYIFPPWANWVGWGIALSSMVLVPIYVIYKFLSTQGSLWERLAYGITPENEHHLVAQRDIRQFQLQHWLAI
Sequence of Histamine H3 receptor (Q9Y5N1 whole entry): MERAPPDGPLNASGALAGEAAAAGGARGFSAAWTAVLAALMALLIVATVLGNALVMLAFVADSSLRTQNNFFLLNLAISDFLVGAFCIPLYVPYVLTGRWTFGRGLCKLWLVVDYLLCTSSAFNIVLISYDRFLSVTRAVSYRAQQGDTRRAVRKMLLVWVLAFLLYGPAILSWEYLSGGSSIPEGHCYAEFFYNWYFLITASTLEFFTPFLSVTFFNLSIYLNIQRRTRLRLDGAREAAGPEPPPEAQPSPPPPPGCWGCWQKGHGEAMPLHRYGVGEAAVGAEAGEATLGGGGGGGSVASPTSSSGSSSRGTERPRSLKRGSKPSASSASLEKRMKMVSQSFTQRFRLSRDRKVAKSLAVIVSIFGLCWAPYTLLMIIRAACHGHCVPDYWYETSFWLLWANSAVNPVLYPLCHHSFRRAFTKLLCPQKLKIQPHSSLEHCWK

As to `CCOC(=O)C(C)(C)Oc1ccc(Cl)cc1` [CLOFIBRATE], the half-maximal activity concentration (AC50) (commonly the concentration giving half of the maximal activity seen) was > 10 µM on Histamine H3 receptor; > 10 µM in assay [1]; > 10 µM in assay [2]; > 30 µM in assay [3]; > 30 µM in assay [4]; > 10 µM in [5]. Moreover, the AC50 in assay [6] is > 10 µM; in assay [7], > 30 µM; at B2 bradykinin receptor, > 30 µM.
In the case of `C[C@@H]1C[C@H]2[C@@H]3CCC4=CC(=O)C=C[C@]4(C)[C@@]3(F)[C@@H](O)C[C@]2(C)[C@@]1(O)C(=O)CO` [DEXAMETHASONE], the AC50 is > 30 µM on Histamine H3 receptor; > 30 µM in assay [1]; > 10 µM in assay [2]; > 30 µM in assay [3]; > 30 µM in [4]; > 10 µM in assay [5]. Also, the half-maximal activity concentration (AC50) (in assay [6]; in [7]; at B2 bradykinin receptor) was > 30 µM throughout.
Consider `Oc1ccc(CCNCCCCCCNCCc2ccccc2)cc1O` [DOPEXAMINE], for which the AC50 is 11 µM at Histamine H3 receptor; 1.2 µM in assay [1]; > 30 µM in [2]; > 30 µM in assay [3]; 0.4 µM in assay [4]; > 30 µM in [5]. Also, the AC50 in assay [6] was 3.8 µM; in assay [7] it was > 30 µM; on B2 bradykinin receptor, > 30 µM.
Consider `CCN1CC(CCN2CCOCC2)C(c2ccccc2)(c2ccccc2)C1=O` (stereo unspecified) [DOXAPRAM], for which the AC50 (on Histamine H3 receptor; in assay [1]; in [2]; in assay [3]; in assay [4]; in [5]) was > 30 µM each time. Besides, the AC50 (in [6]; in assay [7]; at B2 bradykinin receptor) was > 30 µM each time.
Regarding `CCCCOc1ccc(C(=O)CCN2CCCCC2)cc1` [DYCLONINE], the AC50 on Histamine H3 receptor is 3.9 µM; in assay [1] it was 8.4 µM; in assay [2], > 10 µM; in assay [3] it was > 30 µM; in assay [4], 2.3 µM; in assay [5] it was > 10 µM. The results for the AC50 (in assay [6]; in [7]; on B2 bradykinin receptor) were > 10 µM, > 10 µM and > 30 µM, respectively.
`CCc1cc2c(s1)-n1c(C)nnc1CN=C2c1ccccc1Cl` [ETIZOLAM]: the concentration at half-maximal activity (AC50) (on Histamine H3 receptor; in assay [1]; in assay [2]; in assay [3]; in assay [4]; in [5]) was > 30 µM in each case. The AC50 (in assay [6]; in assay [7]; at B2 bradykinin receptor) was > 30 µM throughout.
Take `CCOC(=O)c1ncn2c1CN(C)C(=O)c1cc(F)ccc1-2` [FLUMAZENIL]: the AC50 (at Histamine H3 receptor; in assay [1]; in [2]; in assay [3]; in assay [4]; in [5]) was > 30 µM each time. Also, the AC50 (in [6]; in assay [7]; at B2 bradykinin receptor) was > 30 µM throughout.
Turning to `CC/C=C\C/C=C\C/C=C\C/C=C\C/C=C\CCCC(=O)OCC` [ICOSAPENT ETHYL], the concentration at half-maximal activity (AC50) on Histamine H3 receptor is > 30 µM; in assay [1], > 30 µM; in assay [2], > 30 µM; in [3], 2.4 µM; in [4] it was > 30 µM; in [5], > 30 µM. In addition, the half-maximal activity concentration (AC50) (in assay [6]; in [7]; at B2 bradykinin receptor) was > 30 µM each time.
`NNC(=O)c1ccncc1` [ISONIAZID]: the AC50 (at Histamine H3 receptor; in assay [1]; in [2]; in [3]; in assay [4]; in [5]) was > 30 µM in each case. The AC50 (in [6]; in assay [7]; at B2 bradykinin receptor) was > 30 µM each time.
Consider `COc1ccc(CN2CCN(C(c3ccc(F)cc3)c3ccc(F)cc3)CC2)c(OC)c1OC` [LOMERIZINE], for which the half-maximal activity concentration (AC50) at Histamine H3 receptor was > 30 µM; in assay [1], 4.2 µM; in [2] it was > 30 µM; in assay [3] it was > 30 µM; in [4], 18 µM; in assay [5], 2.4 µM. Also, the half-maximal activity concentration (AC50) (in assay [6]; in assay [7]; at B2 bradykinin receptor) was > 30 µM throughout.
As to `O=C1Nc2ccc(Cl)cc2C(c2ccccc2Cl)=NC1O` (stereo unspecified) [LORAZEPAM], the concentration at half-maximal activity (AC50) on Histamine H3 receptor is > 10 µM; in assay [1] it was > 10 µM; in [2], > 10 µM; in assay [3], > 30 µM; in [4] it was > 10 µM; in [5], > 10 µM. Besides, the half-maximal activity concentration (AC50) in [6] was > 10 µM; in assay [7] it was > 30 µM; at B2 bradykinin receptor, > 30 µM.
Turning to `CN1CCN=C(c2ccccc2)c2cc(Cl)ccc21` [MEDAZEPAM], the AC50 was > 30 µM on Histamine H3 receptor; > 30 µM in assay [1]; > 30 µM in assay [2]; 16 µM in [3]; > 30 µM in assay [4]; > 30 µM in [5]. Besides, the concentration at half-maximal activity (AC50) (in [6]; in assay [7]; on B2 bradykinin receptor) was > 30 µM throughout.
Turning to `Cc1ccnc2c1NC(=O)c1cccnc1N2C1CC1` [NEVIRAPINE], the AC50 at Histamine H3 receptor was > 10 µM; in assay [1] it was > 10 µM; in assay [2] it was > 10 µM; in [3], > 30 µM; in assay [4] it was > 10 µM; in assay [5], > 10 µM. The concentration at half-maximal activity (AC50) in assay [6] was > 10 µM; in [7], > 10 µM; on B2 bradykinin receptor, > 30 µM.
Regarding `OC[C@H]1O[C@@H](Oc2cc(O)cc(/C=C/c3ccc(O)cc3)c2)[C@H](O)[C@@H](O)[C@@H]1O` [PICEID], the half-maximal activity concentration (AC50) on Histamine H3 receptor was > 30 µM; in assay [1] it was > 30 µM; in [2], > 30 µM; in assay [3] it was 4.4 µM; in assay [4], > 30 µM; in assay [5] it was > 30 µM. The concentration at half-maximal activity (AC50) (in assay [6]; in [7]; on B2 bradykinin receptor) was > 30 µM throughout.

The values are drawn from ChEMBL document CHEMBL5291721, “A preclinical secondary pharmacology resource illuminates target-adverse drug reaction associations of marketed drugs” (Nat Commun, 2023).
